Measurements reported in patent US5989846A, “Assays to identify inducers of plant defense resistance” (Rutgers, The State University of New Jersey, priority 1995, dated 1999).

Legend:
plant processes = system: plant processes; design: key: +: induces or enhances; -: reduces or inhibits; settings: addition of salicylic acid to plants; cited from earlier work
guaiacol peroxidases = assay: Guaiacol peroxidase activity in tobacco leaf extracts; type: biochemical, Nicotiana tabacum cv. Xanthi nc
Experimental: Inhibition of peroxidase by SA and INA was determined by measuring the enzyme activities in extracts prepared from tobacco leaves in the absence or presence of 100 μM or 1000 μM SA or INA. Two grams of leaves from 6-8 week old tobacco plants (Nicotiana tabacum cv. Xanthi nc) grown at 22° C. in a 14 hr light cycle were homogenized under liquid nitrogen using a pestle and mortar.
Total guaiacol peroxidase activity was extracted with 100 mM potassium phosphate, pH 6.2, containing 1% (weight/volume) polyvinylpyrrolidone. In order to also extract the ionically bound cell wall isozymes, the extraction buffer was supplemented with 600 mM KCl. Extraction and centrifugation steps were as described for ascorbate peroxidase. After removal of cell debris and ammonium sulfate precipitation (85%), the extract was desalted against 50 mM potassium phosphate, pH 6, containing 25% glycerol. The extract could be stored at -20° C. without significant loss of peroxidase activity.
Guaiacol peroxidase activity was determined by the method of Chance and Maehly (Methods Enzymol. 2: 764 (1955)) using guaiacol as the substrate.
The formation of tetraguaiacol was monitored at 470 nm. The reaction mixture contained 0.25% guaiacol and 100 mM hydrogen peroxide in 20 mM potassium phosphate, pH 6.2. The amount of protein per 1 ml assay was […]. The reaction was measured for five minutes. The assay for horseradish peroxidase was identical, except that only 0.2-0.5 μg protein was used.

For O=C(O)c1ccccc1O [salicylic acid, 2-hydroxybenzoic acid], the “Effect on Adventitious root initiation” value (plant processes) is given as “+”, the “Effect on Alternative pathway” value (plant processes) is given as “+” and the “Effect on Disease resistance” value (plant processes) is given as “+”. The “Effect on Ethylene biosynthesis” value (plant processes) was “-”, the “Effect on Flowering” value (plant processes) was “+” and the “Effect on Fruit yield” value (plant processes) was “+”. The “Effect on Gene regulation” value (plant processes) was “+”, the “Effect on Glycolysis” value (plant processes) was “+” and the “Effect on Growth inhibition” value (plant processes) was “+”. The “Effect on Krebs cycle” value (plant processes) was “+”, the “Effect on Leaf abscission” value (plant processes) was “-” and the “Effect on Photonastic leaflet movement” value (plant processes) was “+”. The “Effect on Potassium ion absorption” value (plant processes) was “-”, the “Effect on Scotonastic leaflet movement” value (plant processes) was “-” and the “Effect on Seed germination” value (plant processes) was “- and +”. For the same compound, the “Effect on Somatic embryogenesis” value (plant processes) was “-”, the “Effect on Stomatal closure” value (plant processes) was “-” and the “Effect on Thermogenesis” value (plant processes) was “+”. For the same compound, the “Effect on Transpiration” value (plant processes) was “-”, the “Effect on Wound response” value (plant processes) was “-” and the Activity (guaiacol peroxidases; POX, 100 μM compound) was 2.7 ± 0.3 μmols of oxidized substrate mi. The Inhibition (guaiacol peroxidases; POX, 100 μM compound) was 3%, the Activity (guaiacol peroxidases; POX, 1,000 μM compound) was 2.7 ± 0.4 μmols of oxidized substrate mi and the Inhibition (guaiacol peroxidases; POX, 1,000 μM compound) was 3%.
